Measurements as given in publication PMC10699557, “A recombinant approach for stapled peptide discovery yields inhibitors of the RAD51 recombinase” (Chemical Science, 2023).
Where two headings read alike, the source gives them in different places. Numbered stars: 1 amine (or outer) side, 2 acyl side, 3 side chain; on linkers, the order of the positions; unused ones are H or OH. Bridge positions count the residues as written; N and C are the ends. Ends that are not written are not given here. Peptide text beside a SMILES is read from it. X2 = CN(CC(=O)O)c1nc(CC[*:1])nc(CC[*:2])n1; X1 = Nc1nc(CC[*:1])cc(CC[*:2])n1

Legend:
[1] = test system: RAD51:dT60 nucleoprotein filament (full-length human RAD51); test: Electrophoretic mobility shift assay (EMSA) of nucleoprotein filament disruption; format: biochemical; conditions: 5 μM full-length human RAD51, 100 nM FAM-dT60, varying peptide concentrations; 50 mM HEPES pH 7.4, 1 mM ATP
Experimental: We evaluated the effect of stapled peptides SP2, SP24 and SP30 on the nucleoprotein filament using electrophoretic mobility shift assay (EMSA, Fig. 3D). A fluorescently labelled dT60 oligonucleotide was incubated with full-length RAD51, after which the peptides were added at different concentrations before separating the products on a polyacrylamide gel.
(§1) Isothermal titration calorimetry
(§2) Peptides were resuspended in MilliQ water to 10 times the desired final concentration.
This was then diluted 10x with the ITC buffer to obtain the final titrant solution (20 mM CHES pH 9.5, 150 mM NaCl, 0.1% Tween-20). HumRadA22 was buffer-exchanged on a NAP-5 desalting column (Cytiva) into ITC buffer and protein concentration was adjusted to 10:9 of the desired final value. One ninth volume of MilliQ water was added to the solution to bring the protein concentration to the desired final value, while maintaining identical buffer:MilliQ volume proportions in both the syringe and the cell. ITC was carried out using a Microcal ITC200 or Malvern PEAQ ITC instruments at 25°C with a 5.00 μCal reference power DP value, stirring speed of 500-750 rpm, 2 sec filter period. Injection spacing, speed and volume, cell/syringe concentrations as well as the number of injections were adjusted for each peptide and its binding properties. ITC data were fitted using a single-site binding model using the Microcal ITC data analysis program in the Origin 7.0 package. Data points affected by baseline spikes were omitted from the analysis.
Circular dichroism spectroscopy
(§3) Dried peptides were dissolved in MilliQ water to 0.3 mg/ml, and then two-fold diluted in 20 mM sodium phosphate, pH 7.4, giving a final solution of 0.15 mg/ml peptide in 10 mM sodium phosphate. CD spectra of selected peptides were recorded on an AVIV 410 circular dichroism spectropolarimeter using a 1 mm path length quartz cuvette. […]
(§4) The ability of linear and stapled BRC repeat peptides to dissociate RAD51-ssDNA nucleofilament was evaluated using an electrophoretic mobility shift assay (EMSA). […]

[2] = molecular target: HumRadA22 (Pyrococcus furiosus, UniProt O74036); test: Isothermal titration calorimetry (ITC) of peptide binding; parameters: species or system archaeal RadA mutant with human Rad51 surface residues; conditions: read-out: ITC KD; free peptides; 20 mM CHES pH 9.5, 150 mM NaCl, 0.1% Tween-20; 25°C; single-site binding model
Experimental: We then evaluated the binding of free peptides to HumRadA22 using FP competition assay and isothermal titration calorimetry (Table 1 and Fig. 3B and C). […] All three peptides SP2, SP24 and SP30 bound with similar low-nanomolar affinities in ITC, and the binding appears to be slightly weaker relative to the linear BRC8-2 template (Fig. 3C).
as §1, §2
This was then diluted 10x with the ITC buffer to obtain the final titrant solution (20 mM CHES pH 9.5, 150 mM NaCl, 0.1% Tween-20). HumRadA22 was buffer-exchanged on a NAP-5 desalting column (Cytiva) into ITC buffer and protein concentration was adjusted to 10:9 of the desired final value. […]
as §3, §4

[3] = molecular target: monomeric version of RAD51 (HumRadA22) (Pyrococcus furiosus, UniProt O74036); test: Fluorescence polarisation (FP) competition assay: displacement of fluorescein-labelled BRC4 repeat; format: binding, archaeal RadA mutant with human Rad51 surface residues; conditions: 100 nM HumRadA22, 10 nM BRC4-fluorescein, KD calculated from IC50, single titration, three technical replicates per point
Source text: We prepared all stapled peptides from small-scale bacterial cultures as GB1/C-His8 fusions and cyclised them with the DVT linker. For peptides SP10, SP11, SP12 and SP15, correct stapling was confirmed by MS, showing a similar composition to SP2 (Fig. S15–S18 ^†). Thus, we confirm that the pseudo-dilution approach is robust in yielding almost exclusively the cyclised product, irrespective of whether a helical or non-helical motif is being constrained. To examine the effect of introducing a covalent staple on affinity, a mock reaction was done in parallel for each peptide by splitting the IMAC elution into two halves and adding DMSO to the mock control instead of the linker. TCEP (500 μM) was included in the mock reaction to maintain the peptide in linear form by preventing disulfide formation. The peptides were tested in a fluorescence polarisation (FP) assay monitoring the displacement of a fluorescently-labelled BRC4 repeat from a monomeric version of RAD51 (HumRadA22), as reported previously.[25] […]
Fluorescence polarisation competition assay
FP competition assay was a modified version of a protocol described previously. Fluorescein-labelled HsBRC4 probe for this assay was kindly provided by Dr Laurens Lindenburg (Hollfelder group, Department of Biochemistry, University of Cambridge). Black 384-well flat-bottom microplates (Corning, 3821) were used with a 40 μl final reaction volume in all measurements. Following buffer conditions were used: 20 mM CHES pH 9.5, 150 mM NaCl, 0.1% BSA, 0.1% Tween-20. Each reaction contained 100 nM HumRadA22 and 10 nM BRC4-fluorescein. Two-fold serial dilutions of stapled peptides were added to the reactions. A free probe control reaction containing only 10 nM BRC4-fluorescein was used to calibrate gain and focal height. FP measurements were performed on Pherastar FX or Clariostar Plus (BMG Labtech) plate readers equipped with an FP 485-520-520 optic modules. Binding curves were fitted using the four-parameter logistic model with a variable Hill slope using Prism software (Graphpad). Regression fitting was performed using the least squares optimisation algorithm.
KD values were estimated from the fitted IC 50 parameters using a previously reported

[4] = stapled product (linker DVT or DVP as in Table 1), 20 mM CHES pH 9.5, 150 mM NaCl, 0.1% BSA, 0.1% Tween-20, read-out: FP competition KD, nM, Stapled
[5] = unstapled linear form, mock reaction with DMSO instead of linker plus TCEP, 20 mM CHES pH 9.5, read-out: FP competition KD, nM, Unstapled

Compound | Depolymerisation of RAD51 from single-stranded DNA (EMSA) [1] | Kd [2] | Kd ([3]; read-out: FP competition KD, nM, Stapled, stapled product (linker DVT or DVP as in Table 1), 20 mM CHES pH 9.5, 150 mM NaCl, 0.1% BSA, 0.1% Tween-20) | Kd [3, 4] | Kd [3, 5]
CC(C)C[C@@H]1NC(=O)[C@H](C)NC(=O)[C@H](CCC(N)=O)NC(=O)[C@@H](NC(=O)[C@H](CO)NC(=O)[C@@H](NC(=O)[C@H](CC(N)=O)NC(=O)[C@H](CC(C)C)NC(=O)[C@H](CCCCN)NC(=O)[C@H](CCCCN)NC(=O)CNC(=O)[C@H](CO)NC(=O)[C@H](C)NC(=O)[C@@H](NC(=O)[C@H](CO)NC(=O)[C@H](Cc2ccccc2)NC(=O)CNC(=O)[C@H](CO)NC(=O)CN)[C@@H](C)O)C(C)C)CSCCc2cc(nc(N)n2)CCSC[C@@H](C(=O)N[C@@H](CCCCN)C(=O)N[C@@H](CC(C)C)C(=O)N[C@@H](Cc2ccccc2)C(=O)N[C@@H](CO)C(=O)NCC(=O)O)NC(=O)[C@H](C)NC(=O)[C@H](CCCCN)NC(=O)[C@H](CCC(N)=O)NC1=O [SP24] (H-GSGFSTASGKKLNVSCQALQKACKLFSG-OH; linker 16-23 via X1) | depolymerise RAD51 from single-stranded DNA to similar extent | 21 nM | 13 nM |  | 
ACGFSTASGKKLNVSCEALQKAVKLFSDIENIS (also: sidechain bridge or staple (positions not given here)) [GB1-SP10, GB1/C-His8 fusion peptide stapled with DVT; unstapled column is its linear mock control] |  |  |  | 27 nM | 35 nM
ACSGFSTASGKKLNCS (also: sidechain bridge or staple (positions not given here)) [GB1-SP16, GB1/C-His8 fusion peptide stapled with DVT; unstapled column is its linear mock control] |  |  |  | > 500 nM | > 500 nM
H-GSVNSSAFSGFSTASGKKLNVSCEALQKACKLFSDIENISGSS-OH (linker 23-30 via X2) [SP2] | depolymerise RAD51 from single-stranded DNA to similar extent |  |  |  | 
SCEALQKACKLFSDIENIS (also: sidechain bridge or staple (positions not given here)) [GB1-SP1, GB1/C-His8 fusion peptide stapled with DVT; unstapled column is its linear mock control] |  |  |  | > 500 nM | > 500 nM
SCFSTASGKKLNVSCEALQKAVKLFSDIENIS (also: sidechain bridge or staple (positions not given here)) [GB1-SP11, GB1/C-His8 fusion peptide stapled with DVT; unstapled column is its linear mock control] |  |  |  | 36 nM | 29 nM
SSACSGFSTASGKKLNVSTEACQKAVKLFSDIENIS (also: sidechain bridge or staple (positions not given here)) [GB1-SP12, GB1/C-His8 fusion peptide stapled with DVT; unstapled column is its linear mock control] |  |  |  | 14 nM | 50 nM
VNCSAFSGFSTASGKKLCVS (also: sidechain bridge or staple (positions not given here)) [GB1-SP14, GB1/C-His8 fusion peptide stapled with DVT; unstapled column is its linear mock control] |  |  |  | > 500 nM | > 500 nM
VNCSAFSGFSTASGKKLNVSTEALCKAVKLFSDIENIS (also: sidechain bridge or staple (positions not given here)) [GB1-SP13, GB1/C-His8 fusion peptide stapled with DVT; unstapled column is its linear mock control] |  |  |  | 28 nM | 21 nM
VNSSAFSGFCTASGKKLNVSCEALQKAVKLFSDIENIS (also: sidechain bridge or staple (positions not given here)) [GB1-SP7, negative control GB1/C-His8 fusion peptide stapled with DVT; unstapled column is its linear mock control] |  |  |  |  | 39 nM
VNSSAFSGFSTASGKKLNVSCEALQKACKLFSDIECIS (also: sidechain bridge or staple (positions not given here)) [GB1-SP15, GB1/C-His8 fusion peptide stapled with DVT; unstapled column is its linear mock control] |  |  |  | 13 nM | 15 nM
VNSSAFSGFSTASGKKLNVSCEALQKACKLFSDIENIS (also: sidechain bridge or staple (positions not given here)) [GB1-SP2, GB1/C-His8 fusion peptide stapled with DVT; unstapled column is its linear mock control] |  |  |  | 15 nM | 6 nM
VNSSAFSGFSTASGKKLNVSTCALQKAVCLFSDIENIS (also: sidechain bridge or staple (positions not given here)) [GB1-SP8, GB1/C-His8 fusion peptide stapled with DVT; unstapled column is its linear mock control] |  |  |  | 29 nM | 45 nM
VNSSAFSGFSTASGKKLNVSTEALCKAVKLFCDIENIS (also: sidechain bridge or staple (positions not given here)) [GB1-SP9, GB1/C-His8 fusion peptide stapled with DVT; unstapled column is its linear mock control] |  |  |  | 51 nM | 57 nM
VNSSAFSGFSTASGKKLNVSTEALQKAVKLFSDIENIS [GB1-BRC8-2, linear BRC8-2 template as GB1/C-His8 fusion] |  |  |  |  | 11 nM
